Laboratory results as given in patent US11707539B2, “FAP-targeted radiopharmaceuticals and imaging agents, and uses related thereto” (Trustees of Tufts College, priority 2020, dated 2023).

Columns and labels:
[1] = tested on: HEK-mFAP tumor-bearing mice; assay: 68Ga dynamic PET/CT imaging; format: in vivo, mouse; settings: dynamic PET over 60 min, IV bolus
Experimental: Part 1. Dynamic PET Imaging. The aim of the study is to perform ^68Ga-6555 PET/CT dynamic imaging in HEK-mFAP tumor-bearing mice to assess tumor uptake and retention over time, as well as non-specific uptake. HEK-mFAP tumor-bearing mice were used for the study (N=3). ^68Ga-6555 (prepared as per Example 20) PET imaging was carried out on a dedicated small animal PET/CT scanner (Siemens Multimodality Inveon, Siemens Medical Solutions USA, Inc.). The mice were anesthetized using 3% isoflurane/medical air inhalation prior to the radiotracer injection and throughout the scan duration. Warming was used to maintain healthy core body temperature of the mice during periods of unconsciousness. Following a bolus intravenous injection (via the lateral tail vein) of ^68Ga-6555 (average of 8 MBq, 7.7-8.1 MBq range), a dynamic emission scan was acquired in list mode format over 60 min. […] The reconstructed PET/CT images were analyzed with the Siemens Inveon Research Workplace software. The radioactivity retention within the selected tissue was obtained from mean voxel intensity values within the VOI and then converted to megabecquerels per milliliter using the calibration factor determined for the Inveon PET System. […] We used the maximum SUV value (SUVmax) within a VOI as a quantitative imaging metric which is independent of tissue intrinsic variations. […]

[2] = Radiochemical purity by HPLC on storage at room temperature; format: physicochemical; settings: 4 hours at room temperature
Experimental: The labeling efficiency was analyzed by instant thin layer chromatography (iTLC) and was typically >98%. For iTLC analysis, 1 μL of diluted labeling solution was applied to a strip of iTLC-SA chromatography paper (Agilent P/N A120B12, 114×2.5 mm) and developed in 0.1M citrate buffer (8 cm solvent migration) to assess free ^177Lu (Rf >0.5) and [^177Lu]-6555 (Rf ˜0). The iTLC strips were analyzed using an Eckert & Ziegler AR-2000 Radio-TLC Imaging Scanner. The radiochemical purity was analyzed by high performance chromatography (HPLC) and was typically >90%. Briefly, the product was analyzed using a Phenomenex Luna 3.0 μm C18(2), 100A, 150 mm×4.6 mm column. Eluent A: 50 mM ammonium acetate in water, eluent B: acetonitrile. Gradient: 2% B from 0-5 min; 2% to 26% B from 5-20 min; 26% to 98% B from 20-25 min; 98% to 2% B from 25-26 min; 2% B from 26-30 min. Flow rate: 1.0 mL/min, Radio-HPLC detector: NaI (Eckert & Zeigler FC-1000), UV: 215 nm. The radiochemical purity remained >90% for three days at room temperature.
The above depicted radiopharmaceutical [^177Lu]-6952 can be prepared as described in Example 19 using the radiochemical precursor 6952 (Example 14 above). The labeling efficiency was analyzed by instant thin layer chromatography (iTLC) and was typically >98%. […] The iTLC strips were analyzed using an Eckert & Ziegler AR-2000 Radio-TLC Imaging Scanner. The radiochemical purity was analyzed by high performance chromatography (HPLC) and was typically >90%. Briefly, the product was analyzed using a Phenomenex Luna 3.0 m C18(2), 100A, 150 mm×4.6 mm column. […]
The labeling efficiency was analyzed by instant thin layer chromatography (iTLC) and was typically >95%. […] The iTLC strips were analyzed using an Eckert & Ziegler AR-2000 Radio-TLC Imaging Scanner. The radiochemical purity was analyzed by high performance chromatography (HPLC) and was typically >95%. Briefly, the product was analyzed using a Phenomenex Luna 3.0 m C18(2), 100Å, 150 mm×4.6 mm column. […]
The labeling efficiency was analyzed by instant thin layer chromatography (iTLC) and was typically >95%. […]

With `C[C@@H](NC(=O)c1ccc(CNC(=O)CN2CCN3CCN4CCN(CC2)CC(=O)[O][Ga]([O]C(=O)C3)[O]C(=O)C4)cc1)C(=O)N1CCC[C@H]1B(O)O` [[^68Ga]-6555] the “time of accumulation in the tumor (time-vs-activity curve)” value [1] was < 5 min, the “time of reaching a plateau in the tumor” value [1] was 60 min and the radiochemical purity remained [2] was > 95%.
